Data on 21 compounds can be found in patent publication US20250129067A1 (Progentos Therapeutics, Inc., priority 2021, published 2025).

Where two headings read alike, the source gives them in different places.

One data set concerns the target PDGFRα (Homo sapiens (Human), UniProt P16234). The data set is described as follows: PDGFRα kinase enzyme assay (Promega PDGFRα Kinase Enzyme System, ADP-Glo). The class given is biochemical. The settings on record: 150 uM ATP. An outline of the steps: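 Read-out was ADP-Glo: remaining ATP depleted, ADP converted to luminescence and compared with a standard curve.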

Data set [1] deals with Oligodendrocyte progenitor cells (OPCs). The data set is described as follows: In vitro OPC differentiation assay, MBP expression (immunocytochemistry).
For data set [2] the test system is unchanged. The data set is described as follows: In vitro OPC differentiation assay, GPR17 expression (immunocytochemistry). The settings on record: 72 hours; for GPR17 Fold Induction (Over Vehicle; 3 μM): 3 μM (10× concentration, final 0.3 μM).
Setting [3] is: 11-point dose response, 10,000 nM to 0.169 nM, BLQ = below limit of quantitation, read-out: IC50 Values on PDGFRα Kinase Inhibition, IC50.
Where [4] appears, read: 72 hours of treatment, fold change over vehicle.
The mark [5] stands for this setting: 5 μM (10× concentration, final 0.5 μM), fold change over vehicle.
Where [6] appears, read: 20 ng purified PDGFRα, Poly (Glu4Tyr1) substrate, two hours, 11-point dose response, read-out: IC50 Values on PDGFRα Kinase Inhibition.

Sequence of PDGFRα (P16234 24-1089): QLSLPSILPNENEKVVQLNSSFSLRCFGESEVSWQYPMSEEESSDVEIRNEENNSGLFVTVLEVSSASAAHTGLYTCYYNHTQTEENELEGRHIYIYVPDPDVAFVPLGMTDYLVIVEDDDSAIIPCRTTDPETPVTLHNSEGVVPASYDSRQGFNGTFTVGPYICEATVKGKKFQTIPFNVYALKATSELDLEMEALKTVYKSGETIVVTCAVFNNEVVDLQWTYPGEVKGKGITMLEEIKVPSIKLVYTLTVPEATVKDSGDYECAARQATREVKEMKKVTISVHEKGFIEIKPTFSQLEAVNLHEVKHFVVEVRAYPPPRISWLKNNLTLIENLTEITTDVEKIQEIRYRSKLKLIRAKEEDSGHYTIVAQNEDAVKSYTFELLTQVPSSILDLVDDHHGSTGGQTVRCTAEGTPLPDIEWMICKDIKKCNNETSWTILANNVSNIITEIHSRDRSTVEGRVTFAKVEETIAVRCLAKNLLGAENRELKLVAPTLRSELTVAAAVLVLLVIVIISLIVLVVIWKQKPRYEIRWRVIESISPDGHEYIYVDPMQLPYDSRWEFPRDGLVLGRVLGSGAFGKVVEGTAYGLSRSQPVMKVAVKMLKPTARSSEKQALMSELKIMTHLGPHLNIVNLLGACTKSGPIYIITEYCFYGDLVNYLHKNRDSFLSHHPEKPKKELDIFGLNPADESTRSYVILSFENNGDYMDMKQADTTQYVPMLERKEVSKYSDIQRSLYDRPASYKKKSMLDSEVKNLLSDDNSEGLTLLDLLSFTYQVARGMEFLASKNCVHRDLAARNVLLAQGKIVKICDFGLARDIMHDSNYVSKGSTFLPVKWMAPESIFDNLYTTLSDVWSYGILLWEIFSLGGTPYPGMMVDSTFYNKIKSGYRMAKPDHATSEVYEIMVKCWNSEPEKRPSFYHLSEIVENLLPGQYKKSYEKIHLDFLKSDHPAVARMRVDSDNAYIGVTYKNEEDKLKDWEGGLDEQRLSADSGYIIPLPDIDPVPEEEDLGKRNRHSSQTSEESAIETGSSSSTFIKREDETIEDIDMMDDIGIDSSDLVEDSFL

`COCCn1cc(-c2ccc3c(N4CCN(c5ncc(Cc6ccccc6)cn5)CC4)cnn3c2)cn1` [Compound 29, 3-[4-(5-benzylpyrimidin-2-yl)piperazin-1-yl]-6-[1-(2-methoxyethyl)-1H-pyrazol-4-yl]pyrazolo[1,5-a]pyridine]: the concentration for half-maximal inhibition (IC50) at PDGFRα (setting [3]) was found to be 925 nM. Besides, the “MBP Fold Induction (Over vehicle)” value in data set [1] (setting [4]) came out at 4.26. Moreover, the “GPR17 Fold Induction (Over Vehicle; 3 μM)” value in data set [2] (fold change over vehicle) came to 9.41. In addition, the “GPR17 Fold Induction (Over Vehicle; 5 μM)” value in data set [2] (setting [5]) turned out to be 3.20.
Taken in the same sequence, the figures for `Cn1cc(-c2ccc3c(N4CCN(C(=O)OCCC5CCOCC5)CC4)cnn3c2)cn1` [Compound 15, 2-(tetrahydro-2H-pyran-4-yl)ethyl 4-[6-(1-methyl-1H-pyrazol-4-yl)pyrazolo[1,5-a]pyridin-3-yl]piperazine-1-carboxylate] were 1410 nM, 1.97, 6.37 and 3.98.
With `Cn1cc(-c2ccc3c(N4CCN(c5ncc(C(O)c6ccccc6)o5)CC4)cnn3c2)cn1` (stereo not drawn) [Compound 248, (2-(4-(6-(1-methyl-1H-pyrazol-4-yl)pyrazolo[1,5-a]pyridin-3-yl)piperazin-1-yl)oxazol-5-yl)(phenyl)methanol], the IC50 at PDGFRα (setting [3]) came out at 1190 nM. Besides, in data set [1] (setting [4]), the “MBP Fold Induction (Over vehicle)” value was found to be 16.04. Besides, the “GPR17 Fold Induction (Over Vehicle; 3 μM)” value in data set [2] (fold change over vehicle) was determined as 3.90.
Take `Cn1cc(-c2ccc3c(N4CCC(c5ncc(Cc6ccccc6)cn5)C4)cnn3c2)cn1` (stereo not drawn) [Compound 36, 3-[3-(5-benzylpyrimidin-2-yl)pyrrolidin-1-yl]-6-(1-methyl-1H-pyrazol-4-yl)pyrazolo[1,5-a]pyridine]: the IC50 at PDGFRα (setting [3]) was found to be 685 nM. For the same compound, the “MBP Fold Induction (Over vehicle)” value in data set [1] (setting [4]) is given as 1.92. For the same compound, in data set [2] (fold change over vehicle), the “GPR17 Fold Induction (Over Vehicle; 3 μM)” value is reported as 7.08. Besides, the “GPR17 Fold Induction (Over Vehicle; 5 μM)” value in data set [2] (setting [5]) came to 5.22.
Turning to `Cn1cc(-c2ccc3c(N4CCN(c5ncc(C(O)c6ccccc6)cn5)CC4)cnn3c2)cn1` (stereo not drawn) [Compound 71, (2-{4-[6-(1-Methyl-1H-pyrazol-4-yl)pyrazolo[1,5-a]pyridin-3-yl]piperazin-1-yl}pyrimidin-5-yl)(phenyl)methanol], the IC50 at PDGFRα (setting [3]) was 5.27 nM. Besides, in data set [1] (setting [4]), the “MBP Fold Induction (Over vehicle)” value is recorded as 25.00. Moreover, in data set [2] (fold change over vehicle), the “GPR17 Fold Induction (Over Vehicle; 3 μM)” value worked out at 9.66.
Take `Cn1cc(-c2ccc3c(N4CCCN(c5ncc(Cc6ccccc6)cn5)CC4)cnn3c2)cn1` [Compound 37, 3-[4-(5-benzylpyrimidin-2-yl)-1,4-diazepan-1-yl]-6-(1-methyl-1H-pyrazol-4-yl)pyrazolo[1,5-a]pyridine]: the IC50 at PDGFRα (setting [3]) was 673 nM. In data set [1] (setting [4]), the “MBP Fold Induction (Over vehicle)” value was determined as 2.95. In data set [2] (fold change over vehicle), the “GPR17 Fold Induction (Over Vehicle; 3 μM)” value is listed as 5.81. Further, the “GPR17 Fold Induction (Over Vehicle; 5 μM)” value in data set [2] (setting [5]) is 7.65.
With “3-[4-(5-benzylpyrimidin-2-yl)piperazin-1-yl]-7-(1-methyl-1H-pyrazol-4-yl)imidazo[1,2-b]pyridazine [Compound 52]”, the IC50 at PDGFRα (setting [3]) came out at 1950 nM. Also, the “MBP Fold Induction (Over vehicle)” value in data set [1] (setting [4]) was 2.66. Moreover, the “GPR17 Fold Induction (Over Vehicle; 3 μM)” value in data set [2] (fold change over vehicle) stood at 9.09. The “GPR17 Fold Induction (Over Vehicle; 5 μM)” value in data set [2] (setting [5]) was determined as 5.41.
For `Cn1cc(-c2ccc3c(N4CCN(C(=O)OC5CCC5)CC4)cnn3c2)cn1` [Compound 32, cyclobutyl 4-[6-(1-methyl-1H-pyrazol-4-yl)pyrazolo[1,5-a]pyridin-3-yl]piperazine-1-carboxylate], the half-inhibitory concentration (IC50) on PDGFRα (setting [3]) was 320 nM. For the same compound, the “MBP Fold Induction (Over vehicle)” value in data set [1] (setting [4]) turned out to be 2.96. In data set [2] (fold change over vehicle), the “GPR17 Fold Induction (Over Vehicle; 3 μM)” value turned out to be 10.59. Also, the “GPR17 Fold Induction (Over Vehicle; 5 μM)” value in data set [2] (setting [5]) was 6.99.
Consider `C[C@@H](OC(=O)N1CCN(c2cnn3cc(-c4cnn(C)c4)ccc23)CC1)c1ccccc1` [Compound 33, (R)-1-phenylethyl 4-(6-(1-methyl-1H-pyrazol-4-yl)pyrazolo[1,5-a]pyridin-3-yl)piperazine-1-carboxylate], for which, on PDGFRα (setting [3]), the IC50 was 7.17 nM. In addition, the “MBP Fold Induction (Over vehicle)” value in data set [1] (setting [4]) was determined as 2.44. Also, the “GPR17 Fold Induction (Over Vehicle; 3 μM)” value in data set [2] (fold change over vehicle) is 13.76. Also, the “GPR17 Fold Induction (Over Vehicle; 5 μM)” value in data set [2] (setting [5]) turned out to be 7.14.
As for `COC(c1ccc(F)cc1)c1cnc(N2CCN(c3cnn4cc(-c5cnn(C)c5)ccc34)CC2)nc1` (stereo not drawn) [Compound 263, 3-(4-(5-((4-fluorophenyl)(methoxy)methyl)pyrimidin-2-yl)piperazin-1-yl)-6-(1-methyl-1H-pyrazol-4-yl)pyrazolo[1,5-a]pyridine], the concentration for half-maximal inhibition (IC50) at PDGFRα (setting [3]) was 517 nM. Further, the “MBP Fold Induction (Over vehicle)” value in data set [1] (setting [4]) is recorded as 12.61. The “GPR17 Fold Induction (Over Vehicle; 3 μM)” value in data set [2] (fold change over vehicle) came to 5.98.
With `C[C@H](OC(=O)N1CCN(c2cnn3cc(-c4cnn(C)c4)ccc23)CC1)c1ccccc1` [Compound 34, (S)-1-phenylethyl 4-(6-(1-methyl-1H-pyrazol-4-yl)pyrazolo[1,5-a]pyridin-3-yl)piperazine-1-carboxylate], the IC50 on PDGFRα (setting [3]) came out at 786 nM. For the same compound, in data set [1] (setting [4]), the “MBP Fold Induction (Over vehicle)” value was determined as 2.00. For the same compound, the “GPR17 Fold Induction (Over Vehicle; 3 μM)” value in data set [2] (fold change over vehicle) is 5.16. For the same compound, the “GPR17 Fold Induction (Over Vehicle; 5 μM)” value in data set [2] (setting [5]) was determined as 5.12.
Turning to `Cn1cc(-c2cn3ncc(N4CCN(C(=O)OC(C)(C)C)CC4)c3cn2)cn1` [Compound 44, Tert-butyl 4-[6-(1-methyl-1H-pyrazol-4-yl)pyrazolo[1,5-a]pyrazin-3-yl)piperazine-1-carboxylate], the IC50 at PDGFRα (setting [3]) is 638 nM. The “MBP Fold Induction (Over vehicle)” value in data set [1] (setting [4]) amounted to 1.75. The “GPR17 Fold Induction (Over Vehicle; 3 μM)” value in data set [2] (fold change over vehicle) was determined as 4.28. Further, the “GPR17 Fold Induction (Over Vehicle; 5 μM)” value in data set [2] (setting [5]) is 3.74.
`CC(C)C(O)c1cnc(N2CCN(c3cnn4cc(-c5cnn(C)c5)ccc34)CC2)nc1` (stereo not drawn) [Compound 176, 2-methyl-1-(2-{4-[6-(1-methyl-1H-pyrazol-4-yl)pyrazolo[1,5-a]pyridin-3-yl]piperazin-1-yl}pyrimidin-5-yl)propan-1-ol]: the IC50 on PDGFRα (setting [3]) worked out at 2080 nM. The “MBP Fold Induction (Over vehicle)” value in data set [1] (setting [4]) came out at 1.48. The “GPR17 Fold Induction (Over Vehicle; 3 μM)” value in data set [2] (fold change over vehicle) is given as 3.90.
Regarding `C[C@@H](OC(=O)N1CCN(c2cnn3cc(-c4cnn(C)c4)ccc23)CC1)c1ccc(F)c(F)c1` [Compound 266, (1R)-1-(3,4-difluorophenyl]ethyl 4-[6-(1-methyl-1H-pyrazol-4-yl)pyrazolo[1,5-a]pyridin-3-yl]piperazine-1-carboxylate], the IC50 at PDGFRα (setting [3]) came out at 2.69 nM. In data set [1] (setting [4]), the “MBP Fold Induction (Over vehicle)” value was 14.20. Further, in data set [2] (fold change over vehicle), the “GPR17 Fold Induction (Over Vehicle; 3 μM)” value stood at 4.88.
As to `Cn1cc(-c2cnc3c(N4CCN(c5ncc(C(O)c6ccc(F)cc6)cn5)CC4)cnn3c2)cn1` (stereo not drawn) [Compound 74, (4-Fluorophenyl)(2-{4-[6-(1-methyl-1H-pyrazol-4-yl)pyrazolo[1,5-a]pyrimidin-3-yl]piperazin-1-yl}pyrimidin-5-yl)methanol], the IC50 on PDGFRα (setting [3]) was 563 nM. Besides, the “MBP Fold Induction (Over vehicle)” value in data set [1] (setting [4]) was determined as 5.83. In addition, the “GPR17 Fold Induction (Over Vehicle; 3 μM)” value in data set [2] (fold change over vehicle) was found to be 7.19.
Regarding `Cn1cc(-c2ccc3c(N4CCN(c5ccc(Cc6ccccc6)cc5)CC4)cnn3c2)cn1` [Compound 150, 3-(4-(4-benzylphenyl)piperazin-1-yl)-6-(1-methyl-1H-pyrazol-4-yl)pyrazolo[1,5-a]pyridine], the IC50 on PDGFRα (setting [3]) is 1140 nM. For the same compound, the “MBP Fold Induction (Over vehicle)” value in data set [1] (setting [4]) was found to be 2.93. The “GPR17 Fold Induction (Over Vehicle; 3 μM)” value in data set [2] (fold change over vehicle) came out at 4.10.
As for `CN(C[C@@H]1COCCO1)S(=O)(=O)Nc1ccc2ccc3ncc(-c4cnn(C)c4)cc3c(=O)c2c1` [MK 2461, reference compound], the half-maximal inhibitory concentration (IC50) at PDGFRα (setting [6]) was 10.8 nM. Further, the “MBP Fold Induction (Over vehicle)” value in data set [1] (primary rat OPCs, 72 hours, 3 uM (10x; final 0.3 uM per method), percent MBP+ cells as fold change over vehicle) was found to be 6.11. Moreover, the “GPR17 Fold Induction (Over Vehicle; 5 μM)” value in data set [2] (primary rat OPCs, 5 μM (10x; final 0.5 μM per method), percent GPR17+ cells as fold change over vehicle) is reported as 7.10.
As to `Cn1cc(-c2ccc3c(N4CCN(c5ncc(Cc6ccccc6)cn5)CC4)cnn3n2)cn1` [Compound 8, 3-[4-(5-benzylpyrimidin-2-yl)piperazin-1-yl]-6-(1-methyl-1H-pyrazol-4-yl)pyrazolo[1,5-b]pyridazine], the IC50 at PDGFRα (setting [3]) came to 1680 nM. Also, the “MBP Fold Induction (Over vehicle)” value in data set [1] (setting [4]) turned out to be 2.33. In addition, in data set [2] (fold change over vehicle), the “GPR17 Fold Induction (Over Vehicle; 3 μM)” value was 10.86. Besides, in data set [2] (setting [5]), the “GPR17 Fold Induction (Over Vehicle; 5 μM)” value turned out to be 3.18.
Take `Cn1cc(-c2ccc3c(N4CCN(c5ncc(Cc6ccc(Cl)cc6)cn5)CC4)cnn3c2)cn1` [Compound 65, 3-{4-[5-(4-chlorobenzyl)pyrimidin-2-yl]piperazin-1-yl}-6-(1-methyl-1H-pyrazol-4-yl)pyrazolo[1,5-a]pyridine]: on PDGFRα (setting [3]), the IC50 was 670 nM. The “MBP Fold Induction (Over vehicle)” value in data set [1] (setting [4]) was found to be 1.71. Further, in data set [2] (fold change over vehicle), the “GPR17 Fold Induction (Over Vehicle; 3 μM)” value worked out at 5.18.
As for `Cn1cc(-c2ccc3c(N4CCN(c5ncc(Cc6c[nH]c7ccccc67)cn5)CC4)cnn3c2)cn1` [Compound 173, 3-[(2-{4-[6-(1-methylpyrazol-4-yl)pyrazolo[1,5-a]pyridin-3-yl]piperazin-1-yl}pyrimidin-5-yl)methyl]-1H-indole], on PDGFRα (setting [3]), the concentration for half-maximal inhibition (IC50) was found to be 1100 nM. Moreover, the “MBP Fold Induction (Over vehicle)” value in data set [1] (setting [4]) turned out to be 0.49. In addition, the “GPR17 Fold Induction (Over Vehicle; 3 μM)” value in data set [2] (fold change over vehicle) was 6.75.
Turning to `CCC(CC)OC(=O)N1CCN(c2cnn3cc(-c4cnn(C)c4)ccc23)CC1` [Compound 16, 1-ethylpropyl 4-[6-(1-methyl-1H-pyrazol-4-yl)pyrazolo[1,5-a]pyridin-3-yl]piperazine-1-carboxylate], the 50% inhibitory concentration (IC50) on PDGFRα (setting [6]) was under 1000 nM; on PDGFRα (setting [3]), 283 nM. Besides, the “MBP Fold Induction (Over vehicle)” value in data set [1] (setting [4]) is 5.15. Also, the “GPR17 Fold Induction (Over Vehicle; 3 μM)” value in data set [2] (fold change over vehicle) is given as 6.82. In addition, the “GPR17 Fold Induction (Over Vehicle; 5 μM)” value in data set [2] (setting [5]) was 2.39.
